Target: CFTR-mediated chloride transport (Homo sapiens, UniProt P13569)
Type: cell-based
Settings: enteroid cells incubated with test compound 18-24 hours, acute 10 μM forskolin and 300 nM Compound III; for Max. Activity: % of chloride transport with 3 μM Compound A, 3 μM Compound II and 300 nM acute Compound III triple combination control
Outline: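 Membrane-potential fluorescence AUC over 15 min quantified CFTR chloride transport after acute forskolin (10 μM), IBMX (100 μM) and Compound III (300 nM) in chloride-free buffer. Human enteroid cells were pretreated with compound for 18–24 h; % Activity is relative to 3 μM Compound A + 3 μM Compound II + 300 nM Compound III.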

Chain of CFTR-mediated chloride transport (P13569 whole entry, looked up): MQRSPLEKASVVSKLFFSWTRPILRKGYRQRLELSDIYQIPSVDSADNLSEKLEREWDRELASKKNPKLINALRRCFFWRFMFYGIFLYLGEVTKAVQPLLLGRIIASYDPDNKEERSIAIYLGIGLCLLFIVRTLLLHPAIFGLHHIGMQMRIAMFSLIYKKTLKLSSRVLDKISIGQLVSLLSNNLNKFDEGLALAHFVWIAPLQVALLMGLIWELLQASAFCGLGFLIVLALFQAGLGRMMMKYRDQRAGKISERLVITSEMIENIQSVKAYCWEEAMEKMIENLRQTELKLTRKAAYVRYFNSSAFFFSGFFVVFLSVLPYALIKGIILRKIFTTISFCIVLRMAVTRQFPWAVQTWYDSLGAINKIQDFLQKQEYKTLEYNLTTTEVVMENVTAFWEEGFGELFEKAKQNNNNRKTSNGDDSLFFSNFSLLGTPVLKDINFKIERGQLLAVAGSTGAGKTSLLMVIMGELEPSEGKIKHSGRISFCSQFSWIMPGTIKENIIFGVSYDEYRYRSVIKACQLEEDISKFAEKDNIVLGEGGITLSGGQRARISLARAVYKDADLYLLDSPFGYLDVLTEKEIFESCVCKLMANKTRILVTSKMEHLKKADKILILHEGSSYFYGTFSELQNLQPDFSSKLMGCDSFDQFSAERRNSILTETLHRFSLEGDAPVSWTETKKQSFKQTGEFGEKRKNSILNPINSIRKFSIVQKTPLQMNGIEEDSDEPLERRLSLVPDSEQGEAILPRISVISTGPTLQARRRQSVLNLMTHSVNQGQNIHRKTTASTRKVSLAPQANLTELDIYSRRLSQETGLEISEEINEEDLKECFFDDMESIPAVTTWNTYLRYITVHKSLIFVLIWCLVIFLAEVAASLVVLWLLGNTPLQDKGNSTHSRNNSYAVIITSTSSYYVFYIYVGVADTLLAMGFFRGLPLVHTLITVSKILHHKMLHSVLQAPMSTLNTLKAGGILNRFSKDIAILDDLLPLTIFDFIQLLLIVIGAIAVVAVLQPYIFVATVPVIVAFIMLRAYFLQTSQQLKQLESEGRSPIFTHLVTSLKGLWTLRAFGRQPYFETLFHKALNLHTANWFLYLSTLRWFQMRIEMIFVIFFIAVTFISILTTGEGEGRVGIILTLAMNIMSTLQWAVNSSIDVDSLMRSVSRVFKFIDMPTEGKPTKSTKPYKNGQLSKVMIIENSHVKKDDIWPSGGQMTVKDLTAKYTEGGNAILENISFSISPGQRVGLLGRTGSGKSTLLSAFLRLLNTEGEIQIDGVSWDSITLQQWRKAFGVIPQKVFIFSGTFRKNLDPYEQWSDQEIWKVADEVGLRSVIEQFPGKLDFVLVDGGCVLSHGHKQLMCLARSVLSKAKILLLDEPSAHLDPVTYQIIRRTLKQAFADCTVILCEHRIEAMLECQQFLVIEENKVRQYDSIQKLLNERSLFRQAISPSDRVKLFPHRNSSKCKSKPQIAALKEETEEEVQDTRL

Row | Compound | EC50 [nM] | Max. Activity
1 | CC1(C)C[C@H]2CCCOc3ccc(cc3)S(=O)(=O)NC(=O)c3ccc(-n4ccc(OCCC5(C(F)(F)F)CC5)n4)nc3N1C2 (single isomer, unassigned) [Compound 100, 12,12-dimethyl-8-(3-{2-[1-(trifluoromethyl)cyclopropyl]ethoxy}-1H-pyrazol-1-yl)-18-oxa-2λ^6-thia-3,9,11-triazatetracyclo[17.2.2.111,14.05,10]tetracosa-1(21),5,7,9,19,22-hexaene-2,2,4-trione] | > 3000 | + (+ is <30%)
2 | CC1(C)C[C@H]2CCCCOc3ccc(cn3)S(=O)(=O)NC(=O)c3ccc(-n4ccc(OCCC5(C(F)(F)F)CC5)n4)nc3N1C2 (single isomer, unassigned) [Compound 103, 12,12-dimethyl-8-(3-{2-[1-(trifluoromethyl)cyclopropyl]ethoxy}-1H-pyrazol-1-yl)-19-oxa-2λ^6-thia-3,9,11,21-tetraazatetracyclo[18.2.2.111,14.05,10]pentacosa-1(23),5,7,9,20(24),21-hexaene-2,2,4-trione] | < 1000 | ++ (++ is 30-60%)
3 | CC1(C)C[C@H]2CCCCOc3ccc(cn3)S(=O)(=O)NC(=O)c3ccc(-n4ccc(OCCC5(C(F)(F)F)CC5)n4)nc3N1C2 (single isomer, unassigned) [Compound 104, 12,12-dimethyl-8-(3-{2-[1-(trifluoromethyl)cyclopropyl]ethoxy}-1H-pyrazol-1-yl)-19-oxa-2λ^6-thia-3,9,11,21-tetraazatetracyclo[18.2.2.111,14.05,10]pentacosa-1(23),5,7,9,20(24),21-hexaene-2,2,4-trione] | > 3000 | + (+ is <30%)
4 | CC1(C)C[C@H]2CCCNc3cccc(n3)S(=O)(=O)NC(=O)c3ccc(-n4ccc(OCC5C6(CC6)C56CC6)n4)nc3N1C2 (single isomer, unassigned) [Compound 106, 8-[3-({dispiro[2.0.2.1]heptan-7-yl}methoxy)-1H-pyrazol-1-yl]-12,12-dimethyl-2λ^6-thia-3,9,11,18,23-pentaazatetracyclo[17.3.1.111,14.05,10]tetracosa-1(22),5,7,9,19(23),20-hexaene-2,2,4-trione] | < 1000 | +++ (+++ is >60%)
5 | CC1(C)C[C@H]2CCCNc3cccc(n3)S(=O)(=O)NC(=O)c3ccc(-n4ccc(OCC5C6(CC6)C56CC6)n4)nc3N1C2 (single isomer, unassigned) [Compound 107, 8-[3-({dispiro[2.0.2.1]heptan-7-yl}methoxy)-1H-pyrazol-1-yl]-12,12-dimethyl-2λ^6-thia-3,9,11,18,23-pentaazatetracyclo[17.3.1.111,14.05,10]tetracosa-1(22),5,7,9,19(23),20-hexaene-2,2,4-trione] | < 1000 | +++ (+++ is >60%)
6 | Cc1c2cnn1CCC[C@@H]1CN(c3nc(-n4ccc(OCCC5(C(F)(F)F)CC5)n4)ccc3C(=O)NS2(=O)=O)C(C)(C)C1 (single isomer, unassigned) [Compound 111] | < 1000 | +++ (+++ is >60%)
7 | Cc1c2cnn1CCC[C@@H]1CN(c3nc(-n4ccc(OCCC5(C(F)(F)F)CC5)n4)ccc3C(=O)NS2(=O)=O)C(C)(C)C1 (single isomer, unassigned) [Compound 113] | 1000 to 3000 | ++ (++ is 30-60%)
8 | Cc1ccc2nc1NCCC[C@H]1CN(c3nc(-n4ccc(OCCC5(C(F)(F)F)CC5)n4)ccc3C(=O)NS2(=O)=O)C(C)(C)C1 (single isomer, unassigned) [Compound 114, 12,12,20-trimethyl-8-(3-{2-[1-(trifluoromethyl)cyclopropyl]ethoxy}-1H-pyrazol-1-yl)-2λ^6-thia-3,9,11,18,23-pentaazatetracyclo[17.3.1.111,14.05,10]tetracosa-1(23),5(10),6,8,19,21-hexaene-2,2,4-trione] | > 3000 | + (+ is <30%)
9 | Cc1ccc2nc1NCCC[C@H]1CN(c3nc(-n4ccc(OCCC5(C(F)(F)F)CC5)n4)ccc3C(=O)NS2(=O)=O)C(C)(C)C1 (single isomer, unassigned) [Compound 115, 12,12,20-trimethyl-8-(3-{2-[1-(trifluoromethyl)cyclopropyl]ethoxy}-1H-pyrazol-1-yl)-2λ^6-thia-3,9,11,18,23-pentaazatetracyclo[17.3.1.111,14.05,10]tetracosa-1(23),5(10),6,8,19,21-hexaene-2,2,4-trione] | < 1000 | +++ (+++ is >60%)
10 | CC1(C)CC[C@H]2CCNc3cccc(n3)S(=O)(=O)NC(=O)c3ccc(-n4ccc(OCCC5(C(F)(F)F)CC5)n4)nc3N21 (single isomer, unassigned) [Compound 116, 8,8-Dimethyl-12-(3-{2-[1-(trifluoromethyl)cyclopropyl]ethoxy}-1H-pyrazol-1-yl)-18λ^6-thia-2,9,11,17,23-pentaazatetracyclo[17.3.1.05,9.010,15]tricosa-1(23),10(15),11,13,19,21-hexaene-16,18,18-trione] | < 1000 | ++ (++ is 30-60%)
11 | CC1(C)CC[C@H]2CCNc3cccc(n3)S(=O)(=O)NC(=O)c3ccc(-n4ccc(OCCC5(C(F)(F)F)CC5)n4)nc3N21 (single isomer, unassigned) [Compound 117, 8,8-dimethyl-12-(3-{2-[1-(trifluoromethyl)cyclopropyl]ethoxy}-1H-pyrazol-1-yl)-18λ^6-thia-2,9,11,17,23-pentaazatetracyclo[17.3.1.05,9.010,15]tricosa-1(23),10(15),11,13,19,21-hexaene-16,18,18-trione] | < 1000 | ++ (++ is 30-60%)
12 | CC1(C)C[C@H]2CCCn3cc(cn3)S(=O)(=O)NC(=O)c3ccc(-n4ccc(OCCC5(C(F)(F)F)CC5)n4)nc3N1C2 (single isomer, unassigned) [Compound 118, 20,20-Dimethyl-4-(3-{2-[1-(trifluoromethyl)cyclopropyl]ethoxy}-1H-pyrazol-1-yl)-10λ^6-thia-1,3,9,13,14-pentaazatetracyclo[16.2.1.111,14.02,7]docosa-2,4,6,11(22),12-pentaene-8,10,10-trione] | 1000 to 3000 | + (+ is <30%)
13 | CC1(C)C[C@H]2CCCn3cc(cn3)S(=O)(=O)NC(=O)c3ccc(-n4ccc(OCCC5(C(F)(F)F)CC5)n4)nc3N1C2 (single isomer, unassigned) [Compound 119, 20,20-dimethyl-4-(3-{2-[1-(trifluoromethyl)cyclopropyl]ethoxy}-1H-pyrazol-1-yl)-10λ^6-thia-1,3,9,13,14-pentaazatetracyclo[16.2.1.111,14.02,7]docosa-2,4,6,11(22),12-pentaene-8,10,10-trione] | < 1000 | +++ (+++ is >60%)
14 | CC1(C)C[C@H]2CCCCNc3ccc(cn3)S(=O)(=O)NC(=O)c3ccc(-n4ccc(OCC5C6(CC6)C56CC6)n4)nc3N1C2 (single isomer, unassigned) [Compound 120, 8-[3-({dispiro[2.0.2.1]heptan-7-yl}methoxy)-1H-pyrazol-1-yl]-12,12-dimethyl-2λ^6-thia-3,9,11,19,21-pentaazatetracyclo[18.2.2.111,14.05,10]pentacosa-1(23),5,7,9,20(24),21-hexaene-2,2,4-trione] | < 1000 | ++ (++ is 30-60%)
15 | CC1(C)C[C@H]2CCCCNc3ccc(cn3)S(=O)(=O)NC(=O)c3ccc(-n4ccc(OCC5C6(CC6)C56CC6)n4)nc3N1C2 (single isomer, unassigned) [Compound 121, 8-[3-({dispiro[2.0.2.1]heptan-7-yl}methoxy)-1H-pyrazol-1-yl]-12,12-dimethyl-2λ^6-thia-3,9,11,19,21-pentaazatetracyclo[18.2.2.111,14.05,10]pentacosa-1(23),5,7,9,20(24),21-hexaene-2,2,4-trione] | < 1000 | +++ (+++ is >60%)
16 | CC1(C)CC[C@H]2CCCNc3cccc(n3)S(=O)(=O)NC(=O)c3ccc(-n4ccc(OCC5C6(CC6)C56CC6)n4)nc3N21 (single isomer, unassigned) [Compound 124, 8-[3-({dispiro[2.0.2.1]heptan-7-yl}methoxy)-1H-pyrazol-1-yl]-12,12-dimethyl-2λ^6-thia-3,9,11,19,24-pentaazatetracyclo[18.3.1.05,10.011,15]tetracosa-1(23),5(10),6,8,20(24),21-hexaene-2,2,4-trione] | < 1000 | +++ (+++ is >60%)
17 | CC1(C)CC[C@H]2CCCNc3cccc(n3)S(=O)(=O)NC(=O)c3ccc(-n4ccc(OCC5C6(CC6)C56CC6)n4)nc3N21 (single isomer, unassigned) [Compound 125, 8-[3-({Dispiro[2.0.2.1]heptan-7-yl}methoxy)-1H-pyrazol-1-yl]-12,12-dimethyl-2λ^6-thia-3,9,11,19,24-pentaazatetracyclo[18.3.1.05,10.011,15]tetracosa-1(23),5(10),6,8,20(24),21-hexaene-2,2,4-trione] | < 1000 | + (+ is <30%)
18 | CC(C)(C)CC[C@H]1CCN(c2ccc3c(n2)N2C[C@@H](CCCNc4cccc(n4)S(=O)(=O)NC3=O)CC2(C)C)C1=O (single isomer, unassigned) [Compound 126] | < 1000 | ++ (++ is 30-60%)
19 | CC(C)(C)CC[C@H]1CCN(c2ccc3c(n2)N2C[C@@H](CCCNc4cccc(n4)S(=O)(=O)NC3=O)CC2(C)C)C1=O (single isomer, unassigned) [Compound 127] | < 1000 | +++ (+++ is >60%)
20 | CC1(C)C[C@H]2CCCCn3cc(cn3)S(=O)(=O)NC(=O)c3ccc(-n4ccc(OCCC5(C(F)(F)F)CC5)n4)nc3N1C2 (single isomer, unassigned) [Compound 134, 21,21-Dimethyl-4-(3-{2-[1-(trifluoromethyl)cyclopropyl]ethoxy}-1H-pyrazol-1-yl)-10λ^6-thia-1,3,9,13,14-pentaazatetracyclo[17.2.1.111,14.02,7]tricosa-2,4,6,11(23),12-pentaene-8,10,10-trione] | < 1000 | + (+ is <30%)

Reference: patent US11866450B2, “Modulators of Cystic Fibrosis Transmembrane Conductance regulator, pharmaceutical compositions, methods of treatment, and process for making the modulators” (priority 2018, dated 2024)
